Here are results for ten molecules from US7022716B2, “Cyclic amine phenyl beta-3 adrenergic receptor agonists” (Wyeth, priority 2000, dated 2006).

Data set [1] has as its target T1, human β3 adrenergic receptor (Homo sapiens, UniProt P13945).
T1 construct: Full length β3 AR clones (402 amino acids) containing the last 6 amino acids of hβ3-AR are prepared; expressed in transfected cells; host or cells: CHO (Chinese hamster ovary) cells
Nature of the data set: cAMP (SPA) response in CHO cells transfected with human β3 adrenergic receptor. It counts as cell-based. Details: key: fraction of maximal isoproterenol (10^-5 M) response. Particulars: maximal response relative to maximal response of isoproterenol at 10^-5 M. An outline of the steps:
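Reactions were stopped with 0.2N HCl and neutralised, and cAMP was measured by SPA. Activity is expressed as percent of the maximal 10^−5 M isoproterenol response.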

T1 sequence (P13945 whole entry): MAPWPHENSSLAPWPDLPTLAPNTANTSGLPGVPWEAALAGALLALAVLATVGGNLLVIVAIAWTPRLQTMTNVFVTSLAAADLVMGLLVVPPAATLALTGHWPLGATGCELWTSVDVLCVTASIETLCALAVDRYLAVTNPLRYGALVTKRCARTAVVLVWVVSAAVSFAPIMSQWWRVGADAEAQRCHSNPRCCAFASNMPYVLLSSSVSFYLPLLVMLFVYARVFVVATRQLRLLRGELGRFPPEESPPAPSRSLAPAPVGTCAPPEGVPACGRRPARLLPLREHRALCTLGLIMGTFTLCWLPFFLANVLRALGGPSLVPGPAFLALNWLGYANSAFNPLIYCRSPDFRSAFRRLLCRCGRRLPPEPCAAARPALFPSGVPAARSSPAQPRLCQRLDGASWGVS

Broadly, the melting point is the temperature of the solid-liquid transition. For the molecule `O=C1NC(=O)C(Cc2ccc(N3CCC(NC[C@H](O)COc4ccc(O)cc4)CC3)cc2)S1` (stereo partly drawn) [Example 81, 5-(4-{4-[(2S)-2-Hydroxy-3-(4-hydroxy-phenoxy)-propylamino]-piperidin-1-yl}-benzyl)-thiazolidine-2,4-dione], the melting point was > 160 °C (dec.). For the same molecule, in data set [1], the “IA(β3)” value is listed as 0.89.

`O=C1NC(=O)C(=Cc2ccc(N3CCC(NC[C@H](O)COc4ccccc4)CC3)cc2)S1` [Example 83, 5-{4-[4-((2S)-2-Hydroxy-3-phenoxy-propylamino)-piperidin-1-yl]-benzylidene}-thiazolidine-2,4-dione]: the melting point lay within 208 to 210 °C. Besides, the “IA(β3)” value in data set [1] is listed as 0.68.

`CS(=O)(=O)Nc1cc(C(O)CNC2CCN(c3ccc(C=C4NC(=O)NC4=O)cc3)CC2)ccc1O` (centres unmarked) [Example 85, N-[5-(2-{1-[4-(2,5-Dioxo-imidazolidin-4-ylidenemethyl)-phenyl]-piperidin-4-ylamino}-1-hydroxy-ethyl)-2-hydroxy-phenyl]-methanesulfonamide]: the melting point is > 201 °C (dec.). Moreover, the “IA(β3)” value in data set [1] stood at 0.94.

For `O=C1NC(=O)C(Cc2ccc(N3CCC(NCC(O)COc4cccc5[nH]c(=O)[nH]c45)CC3)cc2)N1` (centres unmarked) [Example 86], the melting point was > 132 °C (dec.). Moreover, the “IA(β3)” value in data set [1] was determined as 0.69.

Turning to `CS(=O)(=O)Nc1cc(C(O)CNC2CCN(c3ccc(CC4NC(=O)NC4=O)cc3)CC2)ccc1O` (centres unmarked) [Example 87, N-[5-(2-{1-[4-(2,5-Dioxo-imidazolidin-4-ylmethyl)-phenyl]-piperidin-4-ylamino}-1-hydroxy-ethyl)-2-hydroxy-phenyl]-methanesulfonamide], the melting point is > 105 °C (dec.). Besides, in data set [1], the “IA(β3)” value is given as 1.

As to `N=C1NC(=O)C(Cc2ccc(N3CCC(NC[C@H](O)COc4cccc5[nH]c(=O)[nH]c45)CC3)cc2)S1` (stereo partly drawn) [Example 89, 4-((2S)-2-Hydroxy-3-{1-[4-(2-imino-4-oxo-thiazolidin-5-ylmethyl)-phenyl]-piperidin-4-ylamino}-propoxy)-1,3-dihydro-benzoimidazol-2-one], the melting point was > 155 °C (dec.). Further, the “IA(β3)” value in data set [1] was 1.1.

Regarding `O=C1CCc2c(OC[C@@H](O)CNC3CCN(c4ccc(CC5SC(=O)NC5=O)cc4)CC3)ccc(O)c2N1` (stereo partly drawn) [Example 91, 5-(4-{4-[(2S)-2-Hydroxy-3-(8-hydroxy-2-oxo-1,2,3,4-tetrahydro-quinolin-5-yloxy)-propylamino]-piperidin-1-yl}-benzyl)-thiazolidine-2,4-dione], the melting point was > 140 °C (dec.). Further, the “IA(β3)” value in data set [1] turned out to be 1.2.

Regarding `CS(=O)(=O)Nc1cc(OC[C@@H](O)CNC2CCN(c3ccc(CC4SC(=O)NC4=O)cc3)CC2)ccc1O` (stereo partly drawn) [Example 92, N-[5-((2S)-3-{1-[4-(2,4-Dioxo-thiazolidin-5-ylmethyl)-phenyl]-piperidin-4-ylamino}-2-hydroxy-propoxy)-2-hydroxy-phenyl]-methanesulfonamide], the melting point was > 70 °C (dec.). In data set [1], the “IA(β3)” value worked out at 1.1.

Consider `O=C1NC(=O)C(Cc2ccc(N3CCC(NC[C@H](O)COc4ccc(O)c(NS(=O)(=O)c5ccccc5)c4)CC3)cc2)S1` (stereo partly drawn) [Example 93, N-[5-((2S)-3-{1-[4-(2,4-Dioxo-thiazolidin-5-ylmethyl)-phenyl]-piperidin-4-ylamino}-2-hydroxy-propoxy)-2-hydroxy-phenyl]-benzenesulfonamide], for which the melting point was > 120 °C (dec.). Besides, the “IA(β3)” value in data set [1] worked out at 1.

With `CS(=O)(=O)Nc1cc([C@@H](O)CNC2CCN(c3ccc(CC4SC(=O)NC4=O)cc3)CC2)ccc1Cl` (stereo partly drawn) [Example 95, N-[2-Chloro-5-((1R)-2-{1-[4-(2,4-dioxo-thiazolidin-5-ylmethyl)-phenyl]-piperidin-4-ylamino}-1-hydroxy-ethyl)-phenyl]-methanesulfonamide], the melting point was > 105 °C (dec.). Also, in data set [1], the “IA(β3)” value was determined as 0.59.
